Laboratory results taken from patent US20140249135A1, “PIM KINASE INHIBITORS AND METHODS OF THEIR USE” (NOVARTIS AG, priority 2007, published 2014).
pIC50: −log10 of the molar value. Where two headings read alike, the source gives them in different places.

Key:
[1] = target: Pim3 kinase (Homo sapiens, UniProt Q86V86); assay: Pim3 ATP depletion assay; assay type: biochemical; details: for IC50: read-out: IC50 (μM) PIM3; for pIC50: read-out: PIM3 IC50
[2] = target: KDR kinase (Homo sapiens, UniProt P35968); assay: KDR AlphaScreen assay; details: KDR IC50 (μM)
Chain of KDR kinase (P35968 20-1356): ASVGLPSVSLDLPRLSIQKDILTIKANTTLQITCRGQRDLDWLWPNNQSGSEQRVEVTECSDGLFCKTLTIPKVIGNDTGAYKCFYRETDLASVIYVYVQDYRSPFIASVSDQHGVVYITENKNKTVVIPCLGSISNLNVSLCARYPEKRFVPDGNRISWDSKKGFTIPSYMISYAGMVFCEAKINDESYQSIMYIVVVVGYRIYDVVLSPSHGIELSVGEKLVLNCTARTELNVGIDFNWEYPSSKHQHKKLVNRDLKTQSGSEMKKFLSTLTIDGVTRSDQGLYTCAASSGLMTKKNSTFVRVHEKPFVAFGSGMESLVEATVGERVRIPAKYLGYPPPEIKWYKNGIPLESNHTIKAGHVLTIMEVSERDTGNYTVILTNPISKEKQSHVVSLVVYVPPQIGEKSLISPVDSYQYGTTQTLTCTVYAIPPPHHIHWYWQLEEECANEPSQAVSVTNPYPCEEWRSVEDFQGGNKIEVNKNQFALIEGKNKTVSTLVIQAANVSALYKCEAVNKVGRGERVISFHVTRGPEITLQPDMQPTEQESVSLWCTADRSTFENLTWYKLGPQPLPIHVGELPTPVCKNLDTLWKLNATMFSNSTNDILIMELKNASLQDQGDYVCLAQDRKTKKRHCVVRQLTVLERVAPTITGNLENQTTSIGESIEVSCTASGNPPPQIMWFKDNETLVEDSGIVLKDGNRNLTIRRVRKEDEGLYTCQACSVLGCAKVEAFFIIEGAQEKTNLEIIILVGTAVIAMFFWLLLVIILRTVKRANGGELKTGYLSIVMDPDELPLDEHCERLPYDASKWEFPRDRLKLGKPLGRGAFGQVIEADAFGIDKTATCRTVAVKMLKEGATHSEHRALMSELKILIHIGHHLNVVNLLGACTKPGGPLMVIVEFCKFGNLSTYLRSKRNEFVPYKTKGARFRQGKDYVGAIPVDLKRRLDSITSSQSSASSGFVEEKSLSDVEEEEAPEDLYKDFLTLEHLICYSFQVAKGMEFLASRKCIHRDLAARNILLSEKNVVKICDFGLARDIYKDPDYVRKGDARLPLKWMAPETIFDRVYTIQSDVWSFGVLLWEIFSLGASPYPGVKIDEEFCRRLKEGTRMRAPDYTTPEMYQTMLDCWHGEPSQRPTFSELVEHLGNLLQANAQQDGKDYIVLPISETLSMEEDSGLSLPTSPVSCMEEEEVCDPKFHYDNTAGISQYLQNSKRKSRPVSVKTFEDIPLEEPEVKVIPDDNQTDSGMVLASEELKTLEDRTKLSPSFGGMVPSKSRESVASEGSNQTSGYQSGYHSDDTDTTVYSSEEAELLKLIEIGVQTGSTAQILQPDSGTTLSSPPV

[3] = target: Pim2 kinase (Homo sapiens, UniProt Q9P1W9); assay: Pim2 ATP depletion assay; assay type: biochemical; details: for IC50: read-out: IC50 (μM) PIM2; for pIC50: read-out: PIM2 IC50;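 for all read-outs here: Luciferase-based luminescent readout of ATP remaining after PIM2 phosphorylates a BAD peptide, final 5 nM enzyme, 4 µM ATP, 10 µM peptide, 2.5% DMSO, run to roughly half ATP consumption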
Chain of Pim2 kinase (Q9P1W9 whole entry): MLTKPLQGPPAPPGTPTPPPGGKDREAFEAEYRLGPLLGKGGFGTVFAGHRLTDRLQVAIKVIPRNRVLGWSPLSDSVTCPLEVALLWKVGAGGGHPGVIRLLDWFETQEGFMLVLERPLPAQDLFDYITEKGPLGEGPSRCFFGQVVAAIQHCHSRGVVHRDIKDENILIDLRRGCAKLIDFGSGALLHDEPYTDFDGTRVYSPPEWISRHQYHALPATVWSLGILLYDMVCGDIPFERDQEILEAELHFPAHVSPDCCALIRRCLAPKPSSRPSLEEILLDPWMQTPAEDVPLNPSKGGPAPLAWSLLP

[4] = target: Pim1 kinase (Homo sapiens, UniProt P11309); assay: Pim1 ATP depletion assay; assay type: biochemical; details: Pim1 ATP depletion assay; for IC50: read-out: IC50 (μM) PIM1; for pIC50: read-out: PIM1 IC50;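 for all read-outs here: Luciferase-luciferin luminescence readout of residual ATP after PIM1 transfers phosphate to a peptide substrate, 40 µM ATP added, reaction run to roughly half ATP consumption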
Chain of Pim1 kinase (P11309 whole entry): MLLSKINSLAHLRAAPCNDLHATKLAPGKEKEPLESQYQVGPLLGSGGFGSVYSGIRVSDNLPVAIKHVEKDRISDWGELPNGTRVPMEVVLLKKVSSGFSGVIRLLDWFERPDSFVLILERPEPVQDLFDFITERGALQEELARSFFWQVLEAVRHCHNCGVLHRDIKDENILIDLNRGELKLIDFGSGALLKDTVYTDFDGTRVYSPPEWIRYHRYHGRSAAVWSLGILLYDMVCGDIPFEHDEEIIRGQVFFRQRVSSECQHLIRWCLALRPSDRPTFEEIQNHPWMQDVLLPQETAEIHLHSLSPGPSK

Row | SMILES | IC50 [1] [µM] | IC50 [2] [µM] | IC50 [3] [µM] | IC50 [4] [µM] | pIC50 [1] | pIC50 [3] | pIC50 [4]
1 | Cc1nc(N)cc(-c2ccncc2NC(=O)c2nc(-c3ccccc3)ncc2N)n1 [Example 268, 5-Amino-2-phenyl-pyrimidine-4-carboxylic acid [4-(6-amino-2-methyl-pyrimidin-4-yl)-pyridin-3-yl]-amide] | < 1 | 1 to 10 | < 1 | < 1 | – | – | –
2 | Nc1ccc(-c2cncc(O)n2)nc1C(=O)Nc1cnccc1N1CCC[C@H](N)C1 [Example 522, 3-Amino-6-(6-hydroxy-pyrazin-2-yl)-pyridine-2-carboxylic acid (3-amino-3,4,5,6-tetrahydro-2H-[1,4′]bipyridinyl-3′-yl)-amide] | < 1 | 1 to 10 | < 1 | < 1 | – | – | –
3 | N[C@H]1CCCN(c2ccncc2NC(=O)c2ccnc(-c3c(F)cccc3F)n2)C1 [Example 249, N-{4-[(3S)-3-aminopiperidin-1-yl]pyridin-3-yl}-2-(2,6-difluorophenyl)pyrimidine-4-carboxamide N-{4-[(3S)-3-aminopiperidin-1-yl]pyridin-3-yl}-2-(2,6-difluorophenyl)-pyrimidine-4-carboxamide] | < 1 | 10 to 25 | < 1 | < 1 | – | – | –
4 | Nc1cc(F)c(-c2c(F)ccc(OCc3ccccc3)c2F)nc1C(=O)Nc1cnccc1N1CCC[C@H](N)C1 [Example 505, 3-Amino-6-(3-benzyloxy-2,6-difluoro-phenyl)-5-fluoro-pyridine-2-carboxylic acid (3-amino-3,4,5,6-tetrahydro-2H-[1,4′]bipyridinyl-3′-yl)-amide] | < 1 | 10 to 25 | < 1 | < 1 | – | – | –
5 | Nc1cnc(-c2ccc(Cl)cc2F)nc1C(=O)Nc1cnccc1N1CCC[C@H](N)C1 [Example 547, 5-Amino-2-(4-chloro-2-fluoro-phenyl)-pyrimidine-4-carboxylic acid (3-amino-3,4,5,6-tetrahydro-2H-[1,4′]bipyridinyl-3′-yl)-amide] | – | 10 to 25 | – | – | > 6.00 | > 6.00 | > 6.00
6 | Nc1ccc(-c2cnc(N)c(OCC(F)(F)F)n2)nc1C(=O)Nc1cnccc1N1CCC[C@H](N)C1 [Example 519, 3-Amino-6-[5-amino-6-(2,2,2-trifluoro-ethoxy)-pyrazin-2-yl]-pyridine-2-carboxylic acid (3-amino-3,4,5,6-tetrahydro-2H-[1,4′]bipyridinyl-3′-yl)-amide] | < 1 | 10 to 25 | < 1 | < 1 | – | – | –
7 | Nc1cnc(-c2ccccc2)nc1C(=O)Nc1cnccc1N1CCC[C@H](O)C1 [Example 650, 5-Amino-2-phenyl-pyrimidine-4-carboxylic acid (3-hydroxy-3,4,5,6-tetrahydro-2H-[1,4′]bi-pyridinyl-3′-yl)-amide] | – | 10 to 25 | – | – | > 6.00 | > 6.00 | > 6.00
8 | Nc1ccc(-c2cncc(OCC3CC3)n2)nc1C(=O)Nc1cnccc1N1CCC[C@H](N)C1 [Example 521, 3-Amino-6-(6-cyclopropylmethoxy-pyrazin-2-yl)-pyridine-2-carboxylic acid (3-amino-3,4,5,6-tetrahydro-2H-[1,4′]bipyridinyl-3′-yl)-amide] | < 1 | 1 to 10 | < 1 | < 1 | – | – | –
9 | CCCOc1ccc(F)c(-c2ncc(N)c(C(=O)Nc3cnccc3N3CCC[C@H](N)C3)n2)c1 [Example 550, 5-Amino-2-(2-fluoro-5-propoxy-phenyl)-pyrimidine-4-carboxylic acid (3-amino-3,4,5,6-tetrahydro-2H-[1,4′]bipyridinyl-3′-yl)-amide] | – | 10 to 25 | – | – | > 6.00 | > 6.00 | > 6.00
10 | CC(C)NC(=O)c1ccc(F)c(-c2ncc(N)c(C(=O)Nc3cnccc3N3CCC[C@H](N)C3)n2)c1 [Example 542, 5-Amino-2-(2-fluoro-5-isopropylcarbamoyl-phenyl)-pyrimidine-4-carboxylic acid (3-amino-3,4,5,6-tetrahydro-2H-[1,4′]bipyridinyl-3′-yl)-amide] | – | 10 to 25 | – | – | > 6.00 | > 6.00 | > 6.00
11 | CC1(N)CCCN(c2ccncc2NC(=O)c2nc(-c3ccccc3)ncc2N)C1 (stereo not drawn) [Example 261, 5-Amino-2-phenyl-pyrimidine-4-carboxylic acid (3-amino-3-methyl-3,4,5,6-tetrahydro-2H-[1,4′]bipyridinyl-3′-yl)-amide] | < 1 | 1 to 10 | < 1 | < 1 | – | – | –
12 | Cc1ccc(F)c(-c2ncc(N)c(C(=O)Nc3cnccc3N3CCC[C@H](N)C3)n2)c1 [Example 543, 5-Amino-2-(2-fluoro-5-methyl-phenyl)-pyrimidine-4-carboxylic acid (3-amino-3,4,5,6-tetrahydro-2H-[1,4′]bipyridinyl-3′-yl)-amide] | – | 10 to 25 | – | – | > 6.00 | > 6.00 | > 6.00
13 | Nc1ccc(-c2ccccc2)nc1C(=O)Nc1cnccc1N1CCC[C@H](N)C1 [Example 524, 3-Amino-6-phenyl-pyridine-2-carboxylic acid (3-amino-3,4,5,6-tetrahydro-2H-[1,4′]bipyridinyl-3′-yl)-amide] | < 1 | 1 to 10 | < 1 | < 1 | – | – | –
14 | Nc1cnc(-c2ccccc2)nc1C(=O)Nc1cnccc1N1CCC[C@H](N)C1 [Example 265, 5-Amino-2-phenyl-pyrimidine-4-carboxylic acid (3-amino-3,4,5,6-tetrahydro-2H-[1,4′]bipyridinyl-3′-yl)-amide] | < 1 | 10 to 25 | < 1 | < 1 | – | – | –
15 | Nc1cc(-c2ccccc2)cnc1C(=O)Nc1cnccc1N1CCC[C@H](N)C1 [Example 264, 3-Amino-5-phenyl-pyridine-2-carboxylic acid (3-amino-3,4,5,6-tetrahydro-2H-[1,4′]bipyridinyl-3′-yl)-amide] | < 1 | < 1 | < 1 | < 1 | – | – | –
16 | Nc1cc(-c2ccncc2NC(=O)c2nc(-c3c(F)cccc3F)ccc2N)ncn1 [Example 629, 3-amino-N-[4-(6-aminopyrimidin-4-yl)pyridin-3-yl]-6-(2,6-difluoro-phenyl)pyridine-2-carboxamide] | – | 10 to 25 | – | – | > 6.00 | > 6.00 | > 6.00
17 | CSc1nc(N)cc(-c2ccncc2NC(=O)c2nc(-c3cc(C(=O)NC(C)C)ccc3F)ccc2N)n1 [Example 534, 3-Amino-6-(2-fluoro-5-isopropylcarbamoyl-phenyl)-pyridine-2-carboxylic acid [4-(6-amino-2-methylsulfanyl-pyrimidin-4-yl)-pyridin-3-yl]-amide] | < 1 | 1 to 10 | < 1 | < 1 | – | – | –
18 | CC(C)COc1cncc(-c2ccc(N)c(C(=O)Nc3cnccc3N3CCC[C@H](N)C3)n2)n1 [Example 523, 3-Amino-6-(6-isobutoxy-pyrazin-2-yl)-pyridine-2-carboxylic acid (3-amino-3,4,5,6-tetrahydro-2H-[1,4′]bipyridinyl-3′-yl)-amide] | < 1 | 10 to 25 | < 1 | < 1 | – | – | –
